Source: BindingDB's records for patent US20250195508 (University of Central Florida Research Foundation, 2025)

Target: Ephrin type-A receptor 2 (Homo sapiens, UniProt P29317)
Experiment: In Vitro Biochemical Kinase Assay
Source text: In vitro biochemical kinase assays were done using recombinant human EPHA2. compounds were subjected to in vitro biochemical kinase assays done using recombinant human ephrin type-A receptor 2 (EPHA2) (expressed in insect cells) in a Z′-LYTE FRET-based kinase assay.

Sequence of Ephrin type-A receptor 2 (P29317 whole entry): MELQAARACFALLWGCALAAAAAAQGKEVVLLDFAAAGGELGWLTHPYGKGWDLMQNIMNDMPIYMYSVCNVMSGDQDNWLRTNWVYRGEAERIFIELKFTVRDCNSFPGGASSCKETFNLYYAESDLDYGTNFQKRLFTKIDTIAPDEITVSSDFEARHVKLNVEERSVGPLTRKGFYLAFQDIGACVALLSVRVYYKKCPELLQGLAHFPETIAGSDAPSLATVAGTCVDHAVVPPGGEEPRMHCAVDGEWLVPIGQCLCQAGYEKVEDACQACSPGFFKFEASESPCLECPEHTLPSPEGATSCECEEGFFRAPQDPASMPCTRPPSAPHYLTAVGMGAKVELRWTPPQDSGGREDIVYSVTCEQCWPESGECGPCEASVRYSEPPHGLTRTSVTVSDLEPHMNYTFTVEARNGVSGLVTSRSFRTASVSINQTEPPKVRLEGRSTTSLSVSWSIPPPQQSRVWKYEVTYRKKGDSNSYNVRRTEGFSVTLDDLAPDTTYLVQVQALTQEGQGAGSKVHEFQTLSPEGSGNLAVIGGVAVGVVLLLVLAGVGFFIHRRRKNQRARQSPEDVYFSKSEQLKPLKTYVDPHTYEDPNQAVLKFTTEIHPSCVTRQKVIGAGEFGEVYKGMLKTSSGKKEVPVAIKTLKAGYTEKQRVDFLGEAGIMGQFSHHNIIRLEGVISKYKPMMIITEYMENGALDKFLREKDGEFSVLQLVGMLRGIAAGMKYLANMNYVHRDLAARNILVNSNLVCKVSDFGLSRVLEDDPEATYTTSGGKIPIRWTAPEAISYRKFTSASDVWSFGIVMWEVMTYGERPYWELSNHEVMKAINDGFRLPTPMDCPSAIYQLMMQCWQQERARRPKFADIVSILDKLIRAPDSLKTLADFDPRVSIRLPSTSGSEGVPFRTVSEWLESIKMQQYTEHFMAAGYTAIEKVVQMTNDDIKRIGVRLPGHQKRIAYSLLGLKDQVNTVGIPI

IC50 [µM] | SMILES
> 10 | CCN1CCN(Cc2ccc(NC(=O)c3cc(NC(=O)c4cncc(-c5cccs5)c4)cc(OC)c3)cc2C(F)(F)F)CC1 [MLS000911581]
> 10 | CCN1CCN(Cc2ccc(NC(=O)c3cncc(NC(=O)c4cncc(-c5cccs5)c4)c3)cc2C(F)(F)F)CC1 [US20250195508, Name TL5-139]
> 10 | CCN1CCN(Cc2ccc(NC(=O)c3ccnc(NC(=O)c4cncc(-c5cccs5)c4)c3)cc2C(F)(F)F)CC1 [US20250195508, Name TL5-145]
